Test results: patent EP2326172B1, “ANTIFUNGAL AGENTS” (Scynexis, Inc., priority 2008, dated 2010)
Like-named read-outs stand apart in the source and are kept apart here.

Target: T1, glucan synthase (GS) (Candida albicans, UniProt O13428)
T1 construct: Extraction of GS activity from membranes was performed at a protein concentration of 5 mg/mL in extraction buffer; endogenous in cells; host or cells: Candida albicans MY1055 (membrane fraction, detergent extract, product entrapment)
Test: Glucan synthase inhibition (polymerization assay, 96-well, 3H-UDPG incorporation)
Format: biochemical
Experimental: The in vitro evaluation of glucan synthase inhibitory activity of compounds was measured in a polymerization assay in 96-well format. Each well contained 100 µL of ^3H-UDPG at 0.5 mM (6000 to 8000 dpm/nmol), 50 mM HEPES pH 7.5 (Sigma), 10% w/v glycerol (Sigma), 1.5 mg/mL bovine serum albumin (Sigma A 9647. Lot 44H0190), 25 mM KF (Fisher), 1 mM EDTA (Gibco ULTRAPURE), 25 µM GTP-γ-S, enzyme sufficient to give 3 to 6 nmoles incorporation during the 60 min incubation at 22°C, and test compound added from wells in 3-fold serial dilutions in 100% DMSO (1 µL/well). The reaction was stopped by the addition of 100 µL of 20% trichloroacetic acid. Plates were chilled for a minimum of 10 min, and precipitated glucan collected by filtration on GF/C plates (Packard UNIFILTER®-96), washed with 5 cycles of water (about 1 mL/well each cycle) using a Packard FILTERMATE HARVESTER. 40 µL/well scintillation fluid (Packard ULTIMA GOLD TM-XR) was added and the sealed plates counted in a WALLAC BETA counter in top-counting mode at an efficiency of approximately 40%.
Stock solutions were stored at 10 mg/mL in DMSO at -20°C. For each new enzyme preparation, the initial titration performed started at 1 mg/mL, which was prepared by making a 10-fold dilution in DMSO (5 µL to 50 µL). 40 µL of this stock was placed in column 12 of a round-bottomed 96-well microtiter plate. 40 µL DMSO was added to columns 1 to 11 in the same row and ten 3-fold serial dilutions performed, by transferring 20 µL from column 12 to column 11 etc., with 4 mixings before each transfer. No test compound was transferred to from column 2 to column 1. Duplicate aliquots of 1 µL of all 12 dilutions were then transferred to the side walls of a 96-well Bioblock 1.1 mL plate (Fisher brand) to create two rows.
Graphs of the primary data were created in PRISM software (the average of two determinations) using PRISM's curve fitting program (sigmoidal dose response non-linear regression). The amount of compound required to inhibit glucan synthase activity by 50% in this assay (IC50 - ng/mL) was calculated.
Routine analysis was performed with glucan synthase (GS) prepared from Candida albicans MY1055 by the following procedure: MY1055 was grown in 10 liters YPD medium (10 g yeast extract, 20 g tryptone, 20 g glucose per liter) with vigorous shaking at 30°C, to early stationary phase. Cells were harvested by centrifugation, the pellet was washed and frozen at -70°C until breakage. Thawed pellets were shaken with an equal volume of breakage buffer (50 mM HEPES pH 7.4, 10% glycerol, 1 mM EDTA, 1 mM PMSF, 1mM DTT) and 4 times their weight of 0.5 mm acid washed glass beads for 2 hours at 4°C. Extent of breakage was assessed visually at 40x magnification. After low speed centrifugation to remove cell debris, the supernatant was centrifuged at 100,000 x g for 60 min. to separate membranes plus ribosomes from cytoplasmic components. Membranes were further washed two additional times with breakage buffer using the same centrifugation conditions and finally suspended in breakage buffer at 25 to 30 mg/mL protein (Biorad) for storage at -70°C. Extraction of GS activity from membranes was performed at a protein concentration of 5 mg/mL in extraction buffer (50mM NaPO4 pH 7.5, 0.1 M KCl, 0.1M Na citrate, 20% glycerol, 5 µM GTP-γ-S, 1mM DTT, 1 mM PMSF, 3 µg/mL pepstatin) plus 0.25% W1 by gentle mixing at 4°C for 60 min, followed by centrifugation at 100,000 x g for 60 min. After centrifugation, clear supernatant was removed from a pellet consisting of a hard layer usually with small amounts of gelatinous unextracted membranes above it.
Trapping was initiated immediately by 5-fold dilution in trapping buffer (50 mM HEPES pH 7.5, 10 mM KF, 1 mM EDTA, 2 mg/mL BSA) plus 2.5 mM UDPG and 10µM GTP-γ-S. After incubation at 25°C for 60 to 90 minutes, glucan was harvested by low speed centrifugation (3,000 x g, 10 min). […]

[1] = glucan synthase prepared from Candida albicans MY1055, 60 min incubation at 22°C, read-out: Candida Albicans GS IC50 (ng/mL) (converted)

T1 sequence (O13428 1-1897): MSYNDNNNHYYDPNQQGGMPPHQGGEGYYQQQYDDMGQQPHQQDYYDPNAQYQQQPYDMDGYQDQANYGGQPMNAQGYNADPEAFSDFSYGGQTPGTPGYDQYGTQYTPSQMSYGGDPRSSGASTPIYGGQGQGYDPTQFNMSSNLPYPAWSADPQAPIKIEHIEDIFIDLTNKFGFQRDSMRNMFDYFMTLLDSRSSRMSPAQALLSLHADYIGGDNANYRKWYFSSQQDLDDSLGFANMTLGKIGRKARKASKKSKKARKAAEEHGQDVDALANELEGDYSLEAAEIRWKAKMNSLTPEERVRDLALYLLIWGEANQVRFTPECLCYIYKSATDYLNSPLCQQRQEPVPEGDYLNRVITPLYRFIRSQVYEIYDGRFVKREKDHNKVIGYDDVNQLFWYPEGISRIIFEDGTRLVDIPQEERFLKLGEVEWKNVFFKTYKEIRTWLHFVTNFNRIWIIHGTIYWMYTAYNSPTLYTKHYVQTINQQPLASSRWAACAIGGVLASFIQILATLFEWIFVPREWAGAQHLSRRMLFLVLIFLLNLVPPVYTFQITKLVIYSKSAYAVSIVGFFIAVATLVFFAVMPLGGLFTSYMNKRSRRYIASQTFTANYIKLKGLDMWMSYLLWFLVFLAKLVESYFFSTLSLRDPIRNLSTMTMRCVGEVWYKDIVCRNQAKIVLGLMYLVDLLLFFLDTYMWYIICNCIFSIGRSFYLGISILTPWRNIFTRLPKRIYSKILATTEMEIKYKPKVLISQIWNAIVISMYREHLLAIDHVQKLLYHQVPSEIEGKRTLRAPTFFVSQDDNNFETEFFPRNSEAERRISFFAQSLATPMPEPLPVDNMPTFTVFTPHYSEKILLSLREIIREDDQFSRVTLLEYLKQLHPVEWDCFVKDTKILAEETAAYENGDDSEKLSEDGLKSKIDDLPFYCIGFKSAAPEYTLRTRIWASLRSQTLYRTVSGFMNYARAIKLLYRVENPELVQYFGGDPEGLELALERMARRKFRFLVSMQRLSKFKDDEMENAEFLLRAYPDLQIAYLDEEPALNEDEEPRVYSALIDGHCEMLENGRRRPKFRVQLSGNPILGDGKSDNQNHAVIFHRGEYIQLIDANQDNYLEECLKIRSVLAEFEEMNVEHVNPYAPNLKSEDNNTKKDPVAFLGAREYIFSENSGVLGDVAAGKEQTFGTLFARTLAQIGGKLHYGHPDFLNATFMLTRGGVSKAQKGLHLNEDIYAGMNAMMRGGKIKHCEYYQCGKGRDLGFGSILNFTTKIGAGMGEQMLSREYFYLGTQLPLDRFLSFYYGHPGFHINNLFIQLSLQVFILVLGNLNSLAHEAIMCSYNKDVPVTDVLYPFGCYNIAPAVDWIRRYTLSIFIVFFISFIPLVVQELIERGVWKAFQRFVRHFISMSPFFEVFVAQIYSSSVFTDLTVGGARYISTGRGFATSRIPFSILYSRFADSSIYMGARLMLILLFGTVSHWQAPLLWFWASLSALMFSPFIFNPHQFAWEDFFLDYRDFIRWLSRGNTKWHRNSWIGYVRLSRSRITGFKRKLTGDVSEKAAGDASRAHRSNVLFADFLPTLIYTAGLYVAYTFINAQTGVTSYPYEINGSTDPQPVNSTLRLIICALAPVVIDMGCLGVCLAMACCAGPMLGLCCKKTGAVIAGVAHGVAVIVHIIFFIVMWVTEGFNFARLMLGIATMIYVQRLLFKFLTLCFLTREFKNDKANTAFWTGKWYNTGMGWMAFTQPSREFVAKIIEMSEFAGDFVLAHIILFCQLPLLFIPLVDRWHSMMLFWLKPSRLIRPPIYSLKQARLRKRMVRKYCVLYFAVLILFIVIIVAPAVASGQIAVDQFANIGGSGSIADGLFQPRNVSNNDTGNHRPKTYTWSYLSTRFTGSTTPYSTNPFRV
T1 sequence (O42825 1-195 partner limits assumed): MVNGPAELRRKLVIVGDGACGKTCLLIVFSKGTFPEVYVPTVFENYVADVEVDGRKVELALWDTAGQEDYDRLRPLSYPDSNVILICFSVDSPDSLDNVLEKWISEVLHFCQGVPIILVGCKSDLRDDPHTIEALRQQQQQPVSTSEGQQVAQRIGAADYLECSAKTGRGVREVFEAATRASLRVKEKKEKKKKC

SMILES | IC50 | IC50 [1]
CC(C)[C@@H](C)[C@@]1(C)CC[C@]2(C)[C@H]3CC[C@@H]4[C@@]5(COC[C@@]4(C)[C@@H](OC[C@](C)(N)C(C)(C)C)[C@H](n4ncnc4-c4ccncc4)C5)C3=CC[C@@]2(C)[C@@H]1C(=O)O [Example 173, (1S,4aR,6aS,7R,8R,10aR,10bR,12aR,14R,15R)-15-[[(2R)-2-amino-2,3,3-trimethylbutyl]oxy]-8-[(1R)-1,2-dimethylpropyl]-14-[5-(4-pyridinyl)-1H-1,2,4-triazol-1-yl]-1,6,6a,7,8,9,10,10a,10b,11,12,12a-dodecahydro-1,6a,8,10a-tetramethyl-4H-1,4a-propano-2H-phenanthro[1,2-c]pyran-7-carboxylic acid] | 0.822 nM | –
CC(C)[C@@H](C)[C@@]1(C)CC[C@]2(C)[C@H]3CC[C@@H]4[C@@]5(COC[C@@]4(C)[C@@H](OC[C@](C)(N)C(C)(C)C)[C@H](n4ncnc4-c4ccc[n+]([O-])c4)C5)C3=CC[C@@]2(C)[C@@H]1C(=O)O [Example 261, (1S,4aR,6aS,7R,8R,10aR,10bR,12aR,14R,15R)-15-[[(2R)-2-amino-2,3,3-trimethylbutyl]oxy]-8-[(1R)-1,2-dimethylpropyl]-14-[5-(1-oxido-3-pyridinyl)-1H-1,2,4-triazol-1-yl]-1,6,6a,7,8,9,10,10a,10b,11,12,12a-dodecahydro-1,6a,8,10a-tetramethyl-4H-1,4a-propano-2H-phenanthro[1,2-c]pyran-7-carboxylic acid] | – | 2.68 nM
CC(C)[C@@H](C)[C@@]1(C)CC[C@]2(C)[C@H]3CC[C@@H]4[C@@]5(COC[C@@]4(C)[C@@H](OC[C@](C)(N)C(C)C)[C@H](n4ncnc4C(=O)N(C)C)C5)C3=CC[C@@]2(C)[C@@H]1C(=O)O [Example 50, (1S,4aR,6aS,7R,8R,10aR,10bR,12aR,14R,15R)-15-[[(2R)-2-amino-2,3-dimethylbutyl]oxy]-14-[5-[(dimethylamino)carbonyl]-1H-1,2,4-triazol-1-yl]-8-[(1R)-1,2-dimethylpropyl]-1,6,6a,7,8,9,10,10a,10b,11,12,12a-dodecahydro-1,6a,8,10a-tetramethyl-4H-1,4a-propano-2H-phenanthro[1,2-c]pyran-7-carboxylic acid] | – | 12.7 nM
CCC(N)(CC)CO[C@H]1[C@H](n2ncnc2C(=O)NC)C[C@@]23COC[C@]1(C)[C@@H]2CC[C@H]1C3=CC[C@@]2(C)[C@H](C(=O)O)[C@@](C)([C@H](C)C(C)C)CC[C@]12C [Example 101, (1S,4aR,6aS,7R,8R,10aR,10bR,12aR,14R,15R)-15-(2-amino-2-ethylbutoxy)-8-[(1R)-1,2-dimethylpropyl]-14-[5-[(methylamino)carbonyl]-1H-1,2,4-triazol-1-yl]-1,6,6a,7,8,9,10,10a,10b,11,12,12a-dodecahydro-1,6a,8,10a-tetramethyl-4H-1,4a-propano-2H-phenanthro[1,2-c]pyran-7-carboxylic acid] | – | 18.7 nM
CC(C)[C@@H](C)[C@@]1(C)CC[C@]2(C)[C@H]3CC[C@@H]4[C@@]5(COC[C@@]4(C)[C@@H](OC[C@](C)(N)C(C)C)[C@H](n4ncnc4-c4cccnc4)C5)C3=CC[C@@]2(C)[C@@H]1C(=O)O [Example 182, (1S,4aR,6aS,7R,8R,10aR,10bR,12aR,14R,15R)-15-[[(2R)-2-amino-2,3-dimethylbutyl]oxy]-8-[(1R)-1,2-dimethylpropyl]-14-[5-(3-pyridinyl)-1H-1,2,4-triazol-1-yl]-1,6,6a,7,8,9,10,10a,10b,11,12,12a-dodecahydro-1,6a,8,10a-tetramethyl-4H-1,4a-propano-2H-phenanthro[1,2-c]pyran-7-carboxylic acid] | – | 5.59 nM
CCCN[C@@](C)(CO[C@H]1[C@H](n2ncnc2C(=O)NC)C[C@@]23COC[C@]1(C)[C@@H]2CC[C@H]1C3=CC[C@@]2(C)[C@H](C(=O)O)[C@@](C)([C@H](C)C(C)C)CC[C@]12C)C(C)C [Example 53, (1S,4aR,6aS,7R,8R,10aR,10bR,12aR,14R,15R)-8-[(1R)-1,2-dimethylpropyl]-15-[[(2R)-2,3-dimethyl-2-(propylamino)butyl]oxy]-14-[5-[(methylamino)carbonyl]-1H-1,2,4-triazol-1-yl]-1,6,6a,7,8,9,10,10a,10b,11,12,12a-dodecahydro-1,6a,8,10a-tetramethyl-4H-1,4a-propano-2H-phenanthro[1,2-c]pyran-7-carboxylic acid] | – | 42 nM
CC(C)[C@@H](C)[C@@]1(C)CC[C@]2(C)[C@H]3CC[C@@H]4[C@@]5(COC[C@@]4(C)[C@@H](OC[C@](C)(N)C(C)(C)C)[C@H](n4ncnc4-c4ccncc4F)C5)C3=CC[C@@]2(C)[C@@H]1C(=O)O [Example 208, (1S,4aR,6aS,7R,8R,10aR,10bR,12aR,14R,15R)-15-[[(2R)-2-amino-2,3,3-trimethylbutyl]oxy]-8-[(1R)-1,2-dimethylpropyl]-14-[5-(3-fluoro-4-pyridinyl)-1H-1,2,4-triazol-1-yl]-1,6,6a,7,8,9,10,10a,10b,11,12,12a-dodecahydro-1,6a,8,10a-tetramethyl-4H-1,4a-propano-2H-phenanthro[1,2-c]pyran-7-carboxylic acid] | – | 0.936 nM
CC(C)[C@@H](C)[C@@]1(C)CC[C@]2(C)[C@H]3CC[C@@H]4[C@@]5(COC[C@@]4(C)[C@@H](OCC4(N)CCOCC4)[C@H](n4ncnc4-c4ccncn4)C5)C3=CC[C@@]2(C)[C@@H]1C(=O)O [Example 256, (1S,4aR,6aS,7R,8R,10aR,10bR,12aR,14R,15R)-15-[(4-aminotetrahydro-2H-pyran-4-yl)methoxy]-8-[(1R)-1,2-dimethylpropyl]-14-[5-(4-pyrimidinyl)-1H-1,2,4-triazol-1-yl]-1,6,6a,7,8,9,10,10a,10b,11,12,12a-dodecahydro-1,6a,8,10a-tetramethyl-4H-1,4a-propano-2H-phenanthro[1,2-c]pyran-7-carboxylic acid] | – | 6.84 nM
CN[C@@](C)(CO[C@H]1[C@H](n2ncnc2-c2ccncc2)C[C@@]23COC[C@]1(C)[C@@H]2CC[C@H]1C3=CC[C@@]2(C)[C@H](C(=O)O)[C@@](C)([C@H](C)C(C)C)CC[C@]12C)C(C)(C)C [Example 174, (1S,4aR,6aS,7R,8R,10aR,10bR,12aR,14R,15R)-8-[(1R)-1,2-dimethylpropyl]-14-[5-(4-pyridinyl)-1H-1,2,4-triazol-1-yl]-15-[[(2R)-2,3,3-trimethyl-2-(methylamino)butyl]oxy]-1,6,6a,7,8,9,10,10a,10b,11,12,12a-dodecahydro-1,6a,8,10a-tetramethyl-4H-1,4a-propano-2H-phenanthro[1,2-c]pyran-7-carboxylic acid] | – | 2.69 nM
CNC1(CO[C@H]2[C@H](n3ncnc3-c3ccncc3)C[C@@]34COC[C@]2(C)[C@@H]3CC[C@H]2C4=CC[C@@]3(C)[C@H](C(=O)O)[C@@](C)([C@H](C)C(C)C)CC[C@]23C)CCOCC1 [Example 181, (1S,4aR,6aS,7R,8R,10aR,10bR,12aR,14R,15R)-8-[(1R)-1,2-dimethylpropyl]-14-[5-(4-pyridinyl)-1H-1,2,4-triazol-1-yl]-15-[[tetrahydro-4-(methylamino)-2H-pyran-4-yl]methoxy]-1,6,6a,7,8,9,10,10a,10b,11,12,12a-dodecahydro-1,6a,8,10a-tetramethyl-4H-1,4a-propano-2H-phenanthro[1,2-c]pyran-7-carboxylic acid] | – | 10.8 nM
